Laboratory results from article PMC4741798, “Imaging of carbonic anhydrase IX with an ^111In-labeled dual-motif inhibitor” (Oncotarget, 2015).
Where “and” joins values, the source holds several entries; their conditions need not be identical. Identical values can stand only once.

System: SK-RC-52 xenografts
Assay: Biodistribution in mice bearing SK-RC-52 xenografts
Assay type: in vivo
Conditions: for Tumor/blood ratio / Tumor/kid (kidney) ratio / Tumor/mm (muscle) ratio / Biodistribution: Tumor / Biodistribution: Bladder / Biodistribution: Blood / Biodistribution: Brain / Biodistribution: Fat / Biodistribution: Heart / Biodistribution: Kidney (kid) / Biodistribution: Liver / Biodistribution: Lung / Biodistribution: Muscle (mm) / Biodistribution: Pancreas / Biodistribution: Sm. intestine / Biodistribution: Spleen / Biodistribution: Stomach: n = 5; for Biodistribution: Tumor: SK-RC-52 tumor
Experimental: Mice bearing SK-RC-52 xenografts within the lower left flank were injected intravenously with 740 kBq (20 μCi) of [^111In]XYIMSR-01 in 200 μL of PBS. For in vivo competition (binding specificity) studies, tumor-bearing mice were injected with 740 kBq (20 μCi) of [^111In]XYIMSR-01 and 200 nmole of 1 in 200 μL of PBS concurrently. At 1 h, 4 h, 8 h, 24 h and 48 h post-injection, mice were sacrificed by cervical dislocation and the blood was immediately collected by cardiac puncture. Heart, lungs, pancreas, spleen, fat, brain, muscle, small intestines, liver, stomach, kidney, urinary bladder, and tumor were collected. Each organ was weighed and the tissue radioactivity was measured with an automated gamma counter (1282 Compugamma CS, Pharmacia/LKBNuclear, Inc., Mt. Waverly, Vic. Australia). The percentage of injected dose per gram of tissue (% ID/g) was calculated by comparison with samples of a standard dilution of the initial dose. All measurements were corrected for radioactive decay.
Data were expressed as mean ± standard deviation (SD). Prism software (GraphPAD, San Diego, California) was used to determine statistical significance. Statistical significance was calculated using a paired t test. P-values < 0.0001 were considered significant.

[1] = 24 h + Block (co-injected 200 nmole of 1)
[2] = 48 h + Block (co-injected 200 nmole of 1)
[3] = plateau followed by one phase decay fit of Table 1 data

CC(CCC(=O)N[C@@H](CC(=O)N[C@@H](CC(=O)N[C@@H](CCCCn1cc(CCCC(=O)Nc2nnc(S(N)(=O)=O)s2)nn1)C(=O)NCCOCCOCCNC(=O)CN1CCN(CC(=O)[O-])CCN(CC(=O)[O-])CCN(CC(=O)[O-])CC1)C(=O)O)C(=O)O)(c1ccc(O)cc1)c1ccc(O)cc1.[111In+3] [[^111In]XYIMSR-01]
Tumor/blood ratio [1]: 45.2 ± 9.7 | Tumor/kid (kidney) ratio [1]: 2.1 ± 0.3 | Tumor/mm (muscle) ratio [1]: 91.4 ± 11.1 | tumor/liver ratio (24 h post-injection): 8.5 | Biodistribution: Tumor (24 h post-injection, i.v.): 25.62 ± 17.67 %ID/g | Biodistribution: Bladder (24 h post-injection, i.v.): 0.74 ± 0.17 %ID/g | Biodistribution: Blood (24 h post-injection, i.v.): 0.15 ± 0.02 %ID/g | Biodistribution: Brain (24 h post-injection, i.v.): 0.71 ± 0.85 %ID/g | Biodistribution: Fat (24 h post-injection, i.v.): 0.28 ± 0.19 %ID/g | Biodistribution: Heart (24 h post-injection, i.v.): 1.16 ± 0.20 %ID/g | Biodistribution: Kidney (kid) (24 h post-injection, i.v.): 15.29 ± 1.69 %ID/g | Biodistribution: Liver (24 h post-injection, i.v.): 3.02 ± 3.46 %ID/g | Biodistribution: Lung (24 h post-injection, i.v.): 11.01 ± 3.71 %ID/g | Biodistribution: Muscle (mm) (24 h post-injection, i.v.): 0.35 ± 0.12 %ID/g | Biodistribution: Pancreas (24 h post-injection, i.v.): 0.69 ± 0.18 %ID/g | Biodistribution: Sm. intestine (24 h post-injection, i.v.): 2.11 ± 0.33 %ID/g | Biodistribution: Spleen (24 h post-injection, i.v.): 0.69 ± 0.39 %ID/g | Biodistribution: Stomach (24 h post-injection, i.v.): 3.31 ± 1.25 %ID/g | Tumor/blood ratio (24 h post-injection): 178 and 178.1 ± 145.4 | Tumor/kid (kidney) ratio (24 h post-injection): 1.7 and 1.7 ± 1.2 | Tumor/mm (muscle) ratio (24 h post-injection): 68 and 68.4 ± 29.0 | Biodistribution: Tumor [2]: 1 %ID/g and 1.22 ± 0.54 %ID/g | Biodistribution: Bladder [2]: 0.14 ± 0.03 %ID/g | Biodistribution: Blood [2]: 0.03 ± 0.00 %ID/g | Biodistribution: Fat [2]: 0.03 ± 0.01 %ID/g | Biodistribution: Heart [2]: 0.04 ± 0.01 %ID/g | Biodistribution: Kidney (kid) [2]: 0.45 ± 0.09 %ID/g | Biodistribution: Liver [2]: 0.13 ± 0.04 %ID/g | Biodistribution: Lung [2]: 0.09 ± 0.02 %ID/g | Biodistribution: Muscle (mm) [2]: 0.02 ± 0.00 %ID/g | Biodistribution: Pancreas [2]: 0.03 ± 0.01 %ID/g | Biodistribution: Sm. intestine [2]: 0.08 ± 0.02 %ID/g | Biodistribution: Spleen [2]: 0.11 ± 0.03 %ID/g | Biodistribution: Stomach [2]: 0.14 ± 0.03 %ID/g | Tumor/blood ratio [2]: 45.4 ± 13.8 | Tumor/kid (kidney) ratio [2]: 2.7 ± 0.8 | Tumor/mm (muscle) ratio [2]: 75.1 ± 17.7 | Biodistribution: Tumor (48 h post-injection, i.v.): 13.92 ± 6.67 %ID/g | Biodistribution: Bladder (48 h post-injection, i.v.): 0.38 ± 0.18 %ID/g | Biodistribution: Blood (48 h post-injection, i.v.): 0.06 ± 0.02 %ID/g | Biodistribution: Brain (48 h post-injection, i.v.): 0.41 ± 0.05 %ID/g | Biodistribution: Fat (48 h post-injection, i.v.): 0.25 ± 0.08 %ID/g | Biodistribution: Heart (48 h post-injection, i.v.): 0.84 ± 0.16 %ID/g | Biodistribution: Kidney (kid) (48 h post-injection, i.v.): 8.78 ± 1.89 %ID/g | Biodistribution: Liver (48 h post-injection, i.v.): 1.65 ± 0.26 %ID/g | Biodistribution: Lung (48 h post-injection, i.v.): 9.22 ± 1.25 %ID/g | Biodistribution: Muscle (mm) (48 h post-injection, i.v.): 0.39 ± 0.28 %ID/g | Biodistribution: Pancreas (48 h post-injection, i.v.): 0.59 ± 0.18 %ID/g | Biodistribution: Sm. intestine (48 h post-injection, i.v.): 1.22 ± 0.44 %ID/g | Biodistribution: Spleen (48 h post-injection, i.v.): 0.67 ± 0.13 %ID/g | Biodistribution: Stomach (48 h post-injection, i.v.): 1.82 ± 0.43 %ID/g | Tumor/blood ratio (48 h post-injection): 212.0 ± 41.4 | Tumor/kid (kidney) ratio (48 h post-injection): 1.5 ± 0.5 | Tumor/mm (muscle) ratio (48 h post-injection): 52.0 ± 21.0 | Calculated biological excretion half-life: Bladder [3]: 3.730 hr | Calculated biological excretion half-life: Blood [3]: 3.246 hr | Calculated biological excretion half-life: Brain [3]: 3.926 hr | Calculated biological excretion half-life: Fat [3]: 1.536 hr | Calculated biological excretion half-life: Heart [3]: 3.538 hr | Calculated biological excretion half-life: Kidney [3]: 4.344 hr | Calculated biological excretion half-life: Liver [3]: 4.243 hr | Calculated biological excretion half-life: Lung [3]: 5.602 hr | Calculated biological excretion half-life: Muscle [3]: 2.534 hr | Calculated biological excretion half-life: Pancreas [3]: 3.179 hr | Calculated biological excretion half-life: SK-RC-52 tumor [3]: 12.27 hr | Calculated biological excretion half-life: Small intestine [3]: 5.597 hr | Calculated biological excretion half-life: Stomach [3]: 3.908 hr
